Source: publication PMC9329436, “Optimization of the 4-anilinoquin(az)oline scaffold as epidermal growth factor receptor (EGFR) inhibitors for chordoma utilizing a toxicology profiling assay platform” (Scientific Reports, 2022)

What was measured:
[1] = test system: HL60 cells; experiment: AsedaSciences SYSTEMETRIC Cell Health Screen (flow cytometry toxicity profiling); conditions: HL60, 4 h, 5 nM–100 µM; for CC: Cell Cycle score / CM: Cell morphology score / CMI: Cell membrane integrity score / GSH: Glutathione score / MMP: Mitochondrial membrane depolarization score / NMI1: Nuclear membrane integrity 1 score / NMI2: Nuclear membrane integrity 2 score / ROS: Reactive superoxide species score: probability 0–1, n = 2; for CHI: Cell Health Index: probability (0–1) of high-risk class, n = 2
From the text: To prioritize further optimization, in addition to cellular potency, we utilized the AsedaSciences® […]® Cell Health Screen. This live cell flow cytometry (FC) screen was developed to assess human safety risk for candidate pharmaceutical small molecules at the early hit-to-lead stage of development. The screen works by estimating the risk using a supervised machine learning (ML) classifier to assess a multiparametric cellular stress phenotype, produced by the test compound, relative to a training set of known compounds (Table S1). This screen has been designed for early pipeline risk estimation regardless of pharmaceutical class/disease type, so it uses HL60 as the reporter cell line.
The ML classifier was trained with 300 historically known compounds (on market or withdrawn drugs, research compounds, etc.), which were divided into two outcome classes based upon literature, clinical trials, and market histories where applicable. This external curation informed an outcome of “high-risk” or “low-risk”. All 300 compounds were also processed through the automated FC screen, populating each of the two classes with frequency distributions of empirical cell-based phenotypes.
To estimate human safety risk for an unknown compound, the ML classifier assesses the similarity of the test compound’s cell-based phenotype to the distributions of phenotypes in the two outcome classes. […] Phenotypes are derived from twelve FC detection parameters, including light scatter and a series of fluorescent physiological reporter dyes, that track cell stress-related endpoints.
To produce the Cell Health Index, the ML classifier uses all twelve FC parameters simultaneously in a multidimensional logistic regression model, so the CHI contains the most predictive power. In addition to the Cell Health Index, Table 4 also reports probability scores for eight cell stress-related endpoints. These scores are produced individually by passing information to the ML classifier relating to parameters that inform that endpoint. For example, to produce the cell morphology (CM) score, the ML classifier only uses the FC detection parameters for forward scatter (informing change in cell diameter) and side scatter (informing change in optical granularity of the cell) to inform the model. Together, these eight endpoints provide a “biological fingerprint”, allowing assessment of the degree to which SAR series members behave differently across endpoints.
In a 384-well platform, HL60 cells were exposed to a 10-step, 3 × dilution series of each test compound (5 nM–100 µM) for 4 h at 37 °C with 5% CO2. Each dilution series was screened in duplicate, occupying a total of 20 wells, allowing 16 test compounds to be assayed per plate. Each row contained one positive and one negative control well, for a total of 16 replicate positive/negative control pairs on each assay plate. Compound formatting, cell deposition, and dye application were performed robotically so that final assay conditions comprised 100,000 cells in a 40 µL volume. After the 4 h compound exposure, cells were immediately stained with a panel of fluorescent dyes that report physiological signatures of both mitochondrial dysfunction and gross cell stress. Fluorescence and forward/side-scatter data were collected using automated FC with no gating. FC data are processed by an automated algorithm for producing quality control measures and ML classification of compound phenotypes. • 2. HL60 cell culture production
HL60 cells were produced as suspension cultures in glass 850 cm^2 roller bottles with vented caps, at 1 RPM, 5% CO2, and 37 °C. […] Culture density was maintained at or below 1 × 10^6 cells/mL.

[2] = test system: U-CH2 chordoma cell line; experiment: Cell viability assay (alamarBlue, 72 h), U-CH2; type: cell-based, human; conditions: n = 4, 72 h
Method: (§1) Chordoma cell lines were cultured as described previously[10],[12],[33],[34]. Briefly, U-CH1 and U-CH2 cell lines were cultured in 4:1 IMDM:RPMI medium supplemented with 10% fetal bovine serum (FBS) and 1% penicillin/streptomycin in gel-coated flasks. […] CH22, UM-Chor1, U-CH12, and U-CH7 cell lines were cultured in RPMI medium supplemented with 10% FBS and 1% penicillin/streptomycin. The cell lines all undergo regular mycoplasma screening.
(§2) Cells were seeded in 384 well plates and were treated with test compound in quadruplicate 24 h after plating. Cell viability was assessed at 72 h using alamarBlue (ThermoFisher, USA). […] IC50 values were determined by four-parameter nonlinear regression analyses using GraphPad Prism™ version 8 software (San Diego, CA).

[3] = test system: U-CH1 chordoma cell line; experiment: Cell viability assay (alamarBlue, 72 h), U-CH1; type: cell-based, human; conditions: n = 4, 72 h
Method: as §1, §2

| SMILES | CC: Cell Cycle score [1] | CM: Cell morphology score [1] | CMI: Cell membrane integrity score [1] | GSH: Glutathione score [1] | MMP: Mitochondrial membrane depolarization score [1] | NMI1: Nuclear membrane integrity 1 score [1] | NMI2: Nuclear membrane integrity 2 score [1] | ROS: Reactive superoxide species score [1] | CHI: Cell Health Index [1] | IC50 [2] [µM] | IC50 [3] [µM] |
| --- | --- | --- | --- | --- | --- | --- | --- | --- | --- | --- | --- |
| C#Cc1cccc(Nc2ncnc3ccc(OC)cc23)c1 [Compound 2] | 0.38 | 0.24 | 0.62 | 0.038 | 0.019 | 0.42 | 0.068 | 0.17 | 0.31 | 47 | 1.4 |
| C#Cc1cccc(Nc2ncnc3ccccc23)c1 [Compound 3] | 0.86 | 0.96 | 0.99 | 0.98 | 1.00 | 0.53 | 0.76 | 0.98 | 0.74 | 52 | 35 |
| CC(CN1c2ccccc2Sc2ccccc21)N(C)C (stereo not shown) [Promethazine, reference compound] | 0.46 | 1.00 | 0.98 | 0.96 | 0.97 | 0.84 | 0.94 | 0.98 | 0.71 |  |  |
| CC(C)NCC(O)COc1cccc2ccccc12 (stereo not shown) [Propranolol, reference compound] | 0.24 | 0.060 | 0.20 | 0.11 | 0.010 | 0.69 | 0.23 | 0.18 |  |  |  |
| NC(=O)c1ncn([C@@H]2O[C@H](CO)[C@@H](O)[C@H]2O)n1 [Ribavirin, reference compound] | 0.040 | 0.010 | 0.070 | 0.060 | 0.000 | 0.16 | 0.030 | 0.23 | 0.16 |  |  |
| CN(CCOc1ccc(CC2SC(=O)NC2=O)cc1)c1ccccn1 (stereo not shown) [Rosiglitazone, reference compound] | 0.27 | 0.49 | 0.23 | 0.53 | 0.050 | 0.23 | 0.27 | 0.070 | 0.37 |  |  |
| C=C(C)[C@H]1Cc2c(ccc3c2O[C@@H]2COc4cc(OC)c(OC)cc4[C@@H]2C3=O)O1 [Rotenone, reference compound] | 0.70 | 0.93 | 0.83 | 0.79 | 0.99 | 0.54 | 0.76 | 0.94 |  |  |  |
| CCC(C)(C)C(=O)O[C@H]1C[C@@H](C)C=C2C=C[C@H](C)[C@H](CC[C@@H]3C[C@@H](O)CC(=O)O3)[C@H]21 [Simvastatin, reference compound] | 0.12 | 0.030 | 0.080 | 0.41 | 0.060 | 0.29 | 0.10 | 0.11 |  |  |  |
| O=C(O)c1cc(/N=N/c2ccc(S(=O)(=O)Nc3ccccn3)cc2)ccc1O [Sulfasalazine, reference compound] | 0.10 | 0.010 | 0.060 | 0.030 | 0.31 | 0.14 | 0.63 | 0.090 |  |  |  |
| CC/C(=C(\c1ccccc1)c1ccc(OCCN(C)C)cc1)c1ccccc1 [Tamoxifen, reference compound] | 0.98 | 1.00 | 1.00 | 1.00 | 1.00 | 1.00 | 0.99 | 1.00 |  |  |  |
| Cc1cn([C@@H]2C[C@@H](O)[C@H](CO)O2)c(=O)[nH]c1=O [Telbivudine, reference compound] | 0.020 | 0.010 | 0.040 | 0.070 | 0.010 | 0.11 | 0.050 | 0.030 |  |  |  |
| CC(C)(C)c1ccc(C(O)CCCN2CCC(C(O)(c3ccccc3)c3ccccc3)CC2)cc1 (stereo not shown) [Terfenadine, reference compound] | 0.98 | 1.00 | 1.00 | 1.00 | 1.00 |  |  | 1.00 |  |  |  |
| COc1cc2c(Nc3ccc(Cl)c(Cl)c3F)ncnc2cc1OC[C@@H]1C[C@@H]2CN(C)C[C@@H]2C1 [Tesevatinib, reference compound] | 0.96 | 1.00 | 1.00 | 1.00 | 1.00 | 0.91 | 0.99 | 1.00 | 0.92 |  |  |
| CSc1ccc2c(c1)N(CCC1CCCCN1C)c1ccccc1S2 (stereo not shown) [Thioridazine, reference compound] | 0.89 | 1.00 | 1.00 | 1.00 | 1.00 | 1.00 | 1.00 | 1.00 | 0.85 |  |  |
| COc1ccc(/C=C/C(=O)Nc2ccccc2C(=O)O)cc1OC [Tranilast, reference compound] | 0.10 | 0.020 | 0.13 | 0.030 | 0.17 | 0.73 | 0.30 | 0.12 | 0.32 |  |  |
| CC(c1cc2ccccc2s1)N(O)C(N)=O (stereo not shown) [Zileuton, reference compound] | 0.11 | 0.020 | 0.010 | 0.020 | 0.060 | 0.17 | 0.080 | 0.070 | 0.19 |  |  |
